Data set [1] in a line: Water content of the product of the Examples by the Karl-Fischer method. Format: physicochemical. The conditions noted are these: after water absorption (Examples 1-3) or vacuum drying (Examples 4-5). The protocol: 1 kg of powder of 6-methoxy-2′,3′-dideoxyguanosine with 2.7% (wt %) of water content is laid in a plate flat and placed in the environment with the temperature of 5 degrees centigrade and the humidity of 60% (wt %), is mixed every 1-4 hours, and the required product is obtained after 48 hours.
0.5 kg of powder of 6-methoxy-2′,3′-dideoxyguanosine with 1.5% (wt %) of water content is laid in a plate flat and placed in the environment with the temperature of 15 degrees centigrade and the humidity of 40% (wt %), is mixed every 3-5 hours, and the required product is obtained after 36 hours.
0.5 kg of powder of 6-methoxy-2′,3′-dideoxyguanosine with 3.2% (wt %) of water content is laid in a plate flat and placed in the environment with the temperature of 0 degrees centigrade and the humidity of 90% (wt %), is mixed every 2 hours, and the required product is obtained after 36 hours.
1.5 kg of powder of 6-methoxy-2′,3′-dideoxyguanosine with 60.5% (wt %) of water content is laid in a plate flat and placed in a vacuum drying box, anhydrous calcium chloride is taken as a drying agent, vacuumizing is carried out by a water pump at the temperature of 25 degrees centigrade, decompression drying is further carried out, and the required product is obtained after 48 hours.
1.0 kg of powder of 6-methoxy-2′,3′-dideoxyguanosine with 40.5% (wt %) of water content is laid in a plate flat and placed in a vacuum drying box, phosphorus pentoxide is taken as a drying agent, vacuum decompression drying is carried out at the temperature of 15 degrees centigrade, and the required product is obtained after 38 hours.

The test system of the next data set is DHBV DNA replication. Description: Suppression of DHBV DNA replication. The conditions noted are these: competition with ddCTP.
Data set [2] in a line: Moisture absorption and handling under the general conditions. Format: physicochemical. The conditions noted are these: for moisture absorption: general conditions.
Data set [3] can be described thus: Water-absorbing test in different humidity environments at 5 degrees centigrade. Format: physicochemical. The protocol: (§1) Table 1 is a comparison table, wherein, the 6-methoxy-2′,3′-dideoxyguanosine with less than 6% (wt %) of water content is placed in different humidity environments at 5 degrees centigrade for carrying out water-absorbing tests, the products at the corresponding time points are placed in the environment with the temperature of 30 degrees centigrade and the humidity of 90% (wt %) for carrying out the acceleration test inspection, the sampling inspection are carried out at the 15th day, the 30th day and the 60th day respectively, and the inspection indexes comprise the character and the water content.

Data set [4] in a line: Acceleration test inspection at 30 degrees centigrade and humidity 90% (character and water content). Format: physicochemical. The conditions noted are these: for Acceleration Test Inspection, Water Content / Acceleration Test Inspection, Character: 30 degrees centigrade, humidity 90%. On the procedure: as §1
Data set [5] in a line: Metabolism in plasma to ddG. Format: in vitro ADME. The conditions noted are these: metabolite 2′,3′-dideoxyguanosine (ddG).
For data set [6], the system named is HIV (Human Immunodeficiency Virus). Description: Anti-HIV experimental study of the inventors.
The subject of another data set is hepatitis B virus (HBV). The conditions noted are these: reported in Chinese patent CN1493301A; cited from earlier work.
[7] abbreviates: product of placement time 14 hours, 15th Day.
The mark [8] stands for this setting: product of placement time 14 hours, 30th Day.
The mark [9] stands for this setting: product of placement time 14 hours, 60th Day.
The mark [10] stands for this setting: product of placement time 2 days, 15th Day.
The mark [11] stands for this setting: product of placement time 2 days, 30th Day.
[12] abbreviates: product of placement time 2 days, 60th Day.
[13] abbreviates: product of placement time 3 days, 15th Day.
Setting [14] is: product of placement time 3 days, 30th Day.
The mark [15] stands for this setting: product of placement time 3 days, 60th Day.
Where [16] appears, read: product of placement time 4 days, 15th Day.
The mark [17] stands for this setting: product of placement time 4 days, 30th Day.
[18] abbreviates: product of placement time 4 days, 60th Day.
Setting [19] is: product of placement time 10 days, 15th Day.
The mark [20] stands for this setting: product of placement time 10 days, 30th Day.
Where [21] appears, read: product of placement time 10 days, 60th Day.

The structures appear in SMILES notation. “Also recorded” adds a separate entry of the source.

In the case of `COc1nc(N)nc2c1ncn2[C@H]1CC[C@@H](CO)O1` [Example 1, 6-methoxy-2′,3′-dideoxyguanosine], the “water content of the required product” value in data set [1] is reported as 23.5 % (wt %).

For the compound `COc1nc(N)nc2c1ncn2[C@H]1CC[C@@H](CO)O1` [Example 2, 6-methoxy-2′,3′-dideoxyguanosine], in data set [1], the “water content of the required product” value is on record as 12.5 % (wt %).

`COc1nc(N)nc2c1ncn2[C@H]1CC[C@@H](CO)O1` [Example 4, 6-methoxy-2′,3′-dideoxyguanosine]: the “water content of the required product” value in data set [1] is recorded as 22.5 % (wt %).

As to `Nc1nc2c(ncn2[C@H]2CC[C@@H](COP(=O)(O)OP(=O)(O)OP(=O)(O)O)O2)c(=O)[nH]1` [ddGTP], the “suppression of DHBV DNA replication” value in the data set on DHBV DNA replication is “can selectively compete with the ddCTP for suppressing the DHBV DNA replication”.

For `COc1nc(N)nc2c1ncn2[C@H]1CC[C@@H](CO)O1` [Example 3, 6-methoxy-2′,3′-dideoxyguanosine], the “water content of the required product” value in data set [1] is given as 23.2 % (wt %).

As to `COc1nc(N)nc2c1ncn2[C@H]1CC[C@@H](CO)O1` [6-methoxy-2′,3′-dideoxyguanosine], in data set [2] (water content higher than 30% (wt %)), the “behaviour during the smashing process” value is “easy to be bonded into blocks during the smashing process”. Besides, the moisture absorption entry in data set [2] (water content lower than 6% (wt %)) was “easy to absorb the water; also recorded: very easy to absorb moisture and be blocked”. The “Water Content When Placed in Different Humidity Environments” value is on record as 2.7 wt % in data set [3] (Humidity 40%, placement time 0 hour); 4.3 wt % in data set [3] (Humidity 40%, placement time 1 hour); 5.4 wt % in data set [3] (Humidity 40%, placement time 2 hours); 8.7 wt % in data set [3] (Humidity 40%, placement time 14 hours); 12.6 wt % in data set [3] (Humidity 40%, placement time 2 days); 21.8 wt % in data set [3] (Humidity 40%, placement time 3 days). In addition, the “Water Content When Placed in Different Humidity Environments” value amounted to 22.4 wt % in data set [3] (Humidity 40%, placement time 4 days); 21.8 wt % in data set [3] (Humidity 40%, placement time 10 days); 2.7 wt % in data set [3] (Humidity 60%, placement time 0 hour); 4.7 wt % in data set [3] (Humidity 60%, placement time 1 hour); 5.7 wt % in data set [3] (Humidity 60%, placement time 2 hours); 8.6 wt % in data set [3] (Humidity 60%, placement time 14 hours). For the same compound, the “Water Content When Placed in Different Humidity Environments” value in data set [3] (Humidity 60%, placement time 2 days) was 16.3 wt %; in data set [3] (Humidity 60%, placement time 3 days) it was 22.5 wt %; in data set [3] (Humidity 60%, placement time 4 days), 23.64 wt %; in data set [3] (Humidity 60%, placement time 10 days), 23.5 wt %; in data set [3] (Humidity 90%, placement time 0 hour), 2.7 wt %; in data set [3] (Humidity 90%, placement time 1 hour), 5.1 wt %. Further, the “Water Content When Placed in Different Humidity Environments” value in data set [3] (Humidity 90%, placement time 2 hours) worked out at 5.8 wt %; in data set [3] (Humidity 90%, placement time 14 hours) it was 8.9 wt %; in data set [3] (Humidity 90%, placement time 2 days), 15.9 wt %; in data set [3] (Humidity 90%, placement time 3 days), 22.7 wt %; in data set [3] (Humidity 90%, placement time 4 days), 22.8 wt %; in data set [3] (Humidity 90%, placement time 10 days) it was 21.9 wt %. The “Acceleration Test Inspection, Water Content” value in data set [4] (product of placement time 1 hour, 15th Day) is on record as 23.4 wt %; in data set [4] (product of placement time 1 hour, 30th Day), 22.4 wt %; in data set [4] (product of placement time 1 hour, 60th Day) it was 21.8 wt %; in data set [4] (product of placement time 2 hours, 15th Day) it was 22.9 wt %; in data set [4] (product of placement time 2 hours, 30th Day), 22.1 wt %; in data set [4] (product of placement time 2 hours, 60th Day) it was 21.5 wt %. Further, the “Acceleration Test Inspection, Water Content” value stood at 22.7 wt % in data set [4] (setting [7]); 22.0 wt % in data set [4] (setting [8]); 21.4 wt % in data set [4] (setting [9]); 23.0 wt % in data set [4] (setting [10]); 22.5 wt % in data set [4] (setting [11]); 21.6 wt % in data set [4] (setting [12]). Moreover, the “Acceleration Test Inspection, Water Content” value came to 22.1 wt % in data set [4] (setting [13]); 21.8 wt % in data set [4] (setting [14]); 21.5 wt % in data set [4] (setting [15]); 22.9 wt % in data set [4] (setting [16]); 21.8 wt % in data set [4] (setting [17]); 21.8 wt % in data set [4] (setting [18]). Moreover, the “Acceleration Test Inspection, Water Content” value came out at 22.0 wt % in data set [4] (setting [19]), 21.7 wt % in data set [4] (setting [20]) and 21.9 wt % in data set [4] (setting [21]). Besides, the “Acceleration Test Inspection, Character” value in data set [4] (setting [7]), in data set [4] (setting [8]), in data set [4] (setting [9]), in data set [4] (setting [10]), in data set [4] (setting [11]) and in data set [4] (setting [12]) was “Powder” each time. In addition, the “Acceleration Test Inspection, Character” value in data set [4] (setting [13]), in data set [4] (setting [14]), in data set [4] (setting [15]), in data set [4] (setting [16]), in data set [4] (setting [17]) and in data set [4] (setting [18]) was “Powder” in each case. The “Acceleration Test Inspection, Character” value in data set [4] (setting [19]), in data set [4] (setting [20]) and in data set [4] (setting [21]) was “Powder” throughout. Moreover, the character entry in data set [4] (water content greater than 6% (wt %), summary of Table 1) is “basically kept unchanged”. In addition, the metabolism in plasma entry in data set [5] is “rapidly metabolized in plasma to 2′,3′-dideoxyguanosine (ddG)”. For the same compound, the anti-HIV activity entry in data set [6] is “plays the role of fighting against the HIV”. In the data set with hepatitis B virus (HBV), the anti-HBV activity result was “anti-HBV activity”.

As for `COc1nc(N)nc2c1ncn2[C@H]1CC[C@@H](CO)O1` [Example 5, 6-methoxy-2′,3′-dideoxyguanosine], the “water content of the required product” value in data set [1] is reported as 18.5 % (wt %).

As for `COc1nc(N)nc2c1ncn2[C@H]1CC[C@@H](CO)O1` [stable 6-methoxy-2′,3′-dideoxyguanosine, 6-methoxy-2′,3′-dideoxyguanosine], the moisture absorption entry in data set [2] (stable form, water content 6-30% (wt %)) is listed as “difficult to absorb the moisture”. In data set [2] (stable form, water content 6-30% (wt %), room temperature), the stability result is reported as “very stable at room temperature”.

These data come from patent publication US8349811B2, “Stable 6-methoxy-2′,3′-dideoxyguanosine, method for preparing the same and pharmaceutical composition containing the same” (Nanjing Changao Pharmaceutical Science & Technology Co., …, priority 2008, dated 2013).
